From US8778402B2, “Dry powder formulation comprising a corticosteroid and a beta-adrenergic for administration by inhalation” (Chiesi Farmaceutici S.p.A., priority 2012, dated 2014)

Experiment: Particle size distribution of micronised BDP by laser diffraction (Malvern)
Assay type: physicochemical
Conditions: micronised beclometasone dipropionate; volume diameter of 10% of particles
Protocol: The size of the particles of the active is determined by measuring the characteristic equivalent sphere diameter, known as volume diameter, by laser diffraction. In the reported examples, the volume diameter has been determined using a Malvern apparatus. However, other equivalent apparatus may be used by the skilled person in the art.
The particle size was determined by laser diffraction using a Malvern apparatus. The parameter taken into consideration was the VD in microns of 10%, 50% and 90% of the particles expressed as d(v,0.1), d(v, 0.5) and d(v, 0.9), respectively, which correspond to the mass diameter assuming a size independent density for the particles. The span [d(v,0.9)−d(v,0.1)]/d(v,0.5) is also reported. The Specific Surface Area (SSA) was determined by BET nitrogen adsorption using a Coulter SA3100 apparatus as a mean of three determinations.

| d (v, 0.1) [μm] | SMILES |
| --- | --- |
| 0.86 | CCC(=O)OCC(=O)[C@@]1(OC(=O)CC)[C@@H](C)C[C@H]2[C@@H]3CCC4=CC(=O)C=C[C@]4(C)[C@@]3(Cl)[C@@H](O)C[C@@]21C [Batch 1, beclometasone dipropionate] |
| 0.96 | CCC(=O)OCC(=O)[C@@]1(OC(=O)CC)[C@@H](C)C[C@H]2[C@@H]3CCC4=CC(=O)C=C[C@]4(C)[C@@]3(Cl)[C@@H](O)C[C@@]21C [Batch 2, beclometasone dipropionate] |
| 0.95 | CCC(=O)OCC(=O)[C@@]1(OC(=O)CC)[C@@H](C)C[C@H]2[C@@H]3CCC4=CC(=O)C=C[C@]4(C)[C@@]3(Cl)[C@@H](O)C[C@@]21C [Batch 3, beclometasone dipropionate] |
| 0.91 | CCC(=O)OCC(=O)[C@@]1(OC(=O)CC)[C@@H](C)C[C@H]2[C@@H]3CCC4=CC(=O)C=C[C@]4(C)[C@@]3(Cl)[C@@H](O)C[C@@]21C [Batch 4, beclometasone dipropionate] |
